Our source for the IC50 values is US7723358B2, “Aroyl-O-piperidine derivatives for the treatment of diabetes-related problems” (Merck Patent GmbH, priority 2004, dated 2010).

The structures appear in SMILES notation.

The target of this assay is T1, microsomal triglyceride transfer protein (MTP) (Mesocricetus auratus, UniProt P55158).
T1 construct: The supernatant comprising the soluble MTP is dialysed against Tris/HCl 150 mM; from tissue; host or cells: golden hamster liver microsomes, deoxycholate-solubilised supernatant, dialysed
T1 sequence (P55158 19-895): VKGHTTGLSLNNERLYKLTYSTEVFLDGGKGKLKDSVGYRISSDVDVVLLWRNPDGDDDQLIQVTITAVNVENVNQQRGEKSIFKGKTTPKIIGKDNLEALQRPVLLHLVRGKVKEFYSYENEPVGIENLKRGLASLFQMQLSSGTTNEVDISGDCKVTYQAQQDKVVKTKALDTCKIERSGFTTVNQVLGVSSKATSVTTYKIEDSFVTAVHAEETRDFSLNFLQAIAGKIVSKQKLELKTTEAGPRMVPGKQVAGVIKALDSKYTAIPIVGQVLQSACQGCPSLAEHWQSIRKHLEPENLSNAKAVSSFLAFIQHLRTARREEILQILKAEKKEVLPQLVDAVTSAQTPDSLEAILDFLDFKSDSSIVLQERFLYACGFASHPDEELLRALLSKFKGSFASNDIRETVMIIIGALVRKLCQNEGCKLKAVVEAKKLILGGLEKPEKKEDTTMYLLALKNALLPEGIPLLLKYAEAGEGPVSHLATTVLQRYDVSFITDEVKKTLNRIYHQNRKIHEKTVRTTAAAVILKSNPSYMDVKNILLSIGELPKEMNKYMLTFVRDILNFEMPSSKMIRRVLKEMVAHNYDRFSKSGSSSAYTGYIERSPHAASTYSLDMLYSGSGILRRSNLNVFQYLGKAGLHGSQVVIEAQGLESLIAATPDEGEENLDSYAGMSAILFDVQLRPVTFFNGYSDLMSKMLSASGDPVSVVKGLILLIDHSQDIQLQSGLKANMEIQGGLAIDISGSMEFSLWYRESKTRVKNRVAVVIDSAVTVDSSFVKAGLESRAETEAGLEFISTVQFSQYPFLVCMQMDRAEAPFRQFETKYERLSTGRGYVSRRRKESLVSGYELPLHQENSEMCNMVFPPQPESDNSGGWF
Put plainly: Inhibition of MTP activity: transfer of [3H]-triolein from donor liposomes to biotinylated LDL, SPA. The assay is classed as biochemical. The conditions noted are these: MTP from golden hamster liver; incubation 18-24 hours at 37° C.; read-out: IC50, concentration that allows a 50% inhibition of MTP. Here is the method: Analysis of the Inhibition of MTP Activity
The inhibition of the activity of microsomal triglyceride transfer protein (MTP) was tested by using the following operating protocol.
The inhibition of MTP activity with a compound can be quantified by observing the inhibition of the transfer of a labelled triglyceride, from a donor particle to an acceptor particle, in the presence of MTP. The procedure for the preparation of MTP is based on the method by Wetterau and Zilversmit (Biochem. Biophys. Acta (1986) 875, 610). A few grams of golden hamster liver are taken and then rinsed several times in a 250 mM sucrose solution at 0° C. All the following steps proceed at +4° C. A homogenate at a concentration of 50% in 250 mM sucrose is prepared using a Teflon mill and then centrifuged for 10 minutes at 10 000×g at +4° C. The supernatant is then centrifuged at 105 000×g for 75 minutes at +4° C. The supernatant is discarded and the microsomal pellet is taken up in 3 ml (per g of starting liver) of Tris/HCl 150 mM pH 8.0. 1-ml aliquot fractions are stored at −80° C. until the time of use.
After thawing a fraction of microsomes (1 ml), 12 ml of refrigerated Tris/HCl 50 mM, KCl 50 mM, MgCl2 5 mM pH 7.4 buffers and 1.2 ml of deoxycholate (0.54% in water) are added. After incubation for 30 minutes at +4° C. with gentle agitation, the suspension is centrifuged at 105 000×g for 75 minutes. The supernatant comprising the soluble MTP is dialysed against Tris/HCl 150 mM, NaCl 40 mM, EDTA 1 mM, 0.02% sodium azide pH 7.4 buffer (5 times one litre over 2-3 days). The MTP is stored at +4° C., is stable for at least 30 days and is used in unmodified form in the test.
The donor particles (liposomes) are prepared from 208 μl of L-phosphatidylcholine at a concentration of 10 mg/ml in chloroform, and 480 μl of [3H]-triolein at a concentration of 0.5 mCi/ml in toluene. After stirring, the solution is evaporated under nitrogen, taken up in 6 ml of Tris/HCl 50 mM, KCl 50 mM, MgCl2 5 mM pH 7.4 buffer and incubated in an ultrasound bath for 30 minutes at room temperature. The liposomes are stored at +4° C. and sonicated again for 10 minutes before each use.
The acceptor particles are biotinylated low density lipoproteins (LDL-biot). These particles are supplied by the company Amersham.
The reaction mixture is prepared in untreated ½ well white plates (Corning Costar) by addition, in the following order, of: 5 μl of HEPES 50 mM, NaCl 150 mM, BSA 0.1% (w/v), 0.05% sodium azide (w/v), pH 7.4 buffer; 5 μl of liposome; 5 μl of LDL-biot; 5 μl of test products in DMSO; 5 μl of MTP. After incubation for 18-24 hours at 37° C., the reaction is stopped by adding 100 μl of Amersham SPA (Scintillation Proximity Assay) beads coupled to streptavidin, and the radioactivity is counted using a Top Count (Packard) machine at least one hour later. The inhibition of the transfer of the triglycerides with a compound is reflected by a reduction in the transferred radioactivity.
The results are expressed in terms of the IC50, i.e. the concentration that allows a 50% inhibition of MTP.
Consider `Cc1cccc(C(=O)Nc2cccc(OC3CCN(C(=O)OC(C)(C)C)CC3)c2)c1-c1ccc(OC(F)(F)F)cc1` [Example 1, 1,1-dimethylethyl 4-[3-[[[6-methyl-4′-(trifluoromethoxy)[1,1′-biphenyl]-2-yl]carbonyl]amino]phenoxy]-1-piperidine-carboxylate], for which the IC50 came out at 421 nM.
The result for `CC(=O)N1CCC(Oc2cccc(NC(=O)c3cccc(C)c3-c3ccc(OC(F)(F)F)cc3)c2)CC1` [Example 4, N-[3-[(1-acetyl-4-piperidinyl)oxy]phenyl]-6-methyl-4′-(trifluoromethoxy)[1,1′-biphenyl]-2-carboxamide] reads 344 nM; that for `Cc1cccc(C(=O)Nc2cccc(OC3CCN(C(=O)Nc4ccccc4)CC3)c2)c1-c1ccc(OC(F)(F)F)cc1` [Example 11, 4-[3-[[[6-methyl-4′-(trifluoromethoxy)[1,1′-biphenyl]-2-yl]carbonyl]amino]phenoxy]-N-phenyl-1-piperidinecarboxamide], 347 nM; that for `Cc1cccc(C(=O)Nc2cccc(OC3CCN(S(=O)(=O)c4cccnc4Cl)CC3)c2)c1-c1ccc(OC(F)(F)F)cc1` [Example 19, N-[3-[[1-[(2-chloro-3-pyridinyl)sulfonyl]-4-piperidinyl]oxy]phenyl]-6-methyl-4′-(trifluoromethoxy)[1,1′-biphenyl]-2-carboxamide], 290 nM.
In the case of `Cc1cccc(C(=O)Nc2cccc(OC3CCN(S(=O)(=O)c4cccc5nonc45)CC3)c2)c1-c1ccc(OC(F)(F)F)cc1` [Example 20, N-[3-[[1-(2,1,3-benzoxadiazol-4-yl-sulfonyl)-4-piperidinyl]oxy]phenyl]-6-methyl-4′-(trifluoromethoxy)[1,1′-biphenyl]-2-carboxamide], the IC50 was 392 nM.
Turning to `COc1cccc(NC(=O)N2CCC(Oc3cccc(NC(=O)c4cccc(C)c4-c4ccc(OC(F)(F)F)cc4)c3)CC2)c1` [Example 23, N-(3-methoxyphenyl)-4-[3-[[[6-methyl-4′-(trifluoromethoxy)[1,1′-biphenyl]-2-yl]-carbonyl]amino]phenoxy]-1-piperidine-carboxamide], the IC50 worked out at 261 nM.
In the case of `Cc1cccc(C(=O)Nc2cccc(OC3CCN(C(=O)Nc4cccc(C(F)(F)F)c4)CC3)c2)c1-c1ccc(OC(F)(F)F)cc1` [Example 24, 4-[3-[[[6-methyl-4-(trifluoromethoxy)[1,1′-4-biphenyl]-2-yl]carbonyl]amino]phenoxy]-N-[3-(trifluoromethyl)phenyl]-1-piperidine-carboxamide], the IC50 came to 459 nM.
Take `Cc1cccc(C(=O)Nc2cccc(OC3CCN(C(=O)Nc4ccc(F)cc4)CC3)c2)c1-c1ccc(OC(F)(F)F)cc1` [Example 25, N-(4-fluorophenyl)-4-[3-[[[6-methyl-4′-(trifluoromethoxy)[1,1′-biphenyl]-2-yl]-carbonyl]amino]phenoxy]-1-piperidine-carboxamide]: the IC50 is 367 nM.
Turning to `CCOC(=O)c1ccc(NC(=O)N2CCC(Oc3cccc(NC(=O)c4cccc(C)c4-c4ccc(OC(F)(F)F)cc4)c3)CC2)cc1` [Example 27, ethyl 4-[[[4-[3-[[[6-methyl-4′-(trifluorometh-oxy)[1,1′-biphenyl]-2-yl]carbonyl]amino]-phenoxy]-1-piperidinyl]carbonyl]amino]-benzoate], the IC50 was determined as 295 nM.
Turning to `Cc1cccc(C(=O)Nc2cccc(OC3CCN(C(=O)NC(C)(C)C)CC3)c2)c1-c1ccc(OC(F)(F)F)cc1` [Example 28, N-(1,1-dimethylethyl)-4-[3-[[[6-methyl-4′-(trifluoromethoxy)[1,1′-biphenyl]-2-yl]-carbonyl]amino]phenoxy]-1-piperidine-carboxamide], the IC50 is 232 nM.
Under `Cc1ccc(NC(=O)N2CCC(Oc3cccc(NC(=O)c4cccc(C)c4-c4ccc(OC(F)(F)F)cc4)c3)CC2)cc1` [Example 29, N-(4-methylphenyl)-4-(3-[[[6-methyl-4′-(trifluoromethoxy)[1,1′-biphenyl]-2-yl]-carbonyl]amino]phenoxy]-1-piperidine-carboxamide] stands 268 nM; under `Cc1cccc(C(=O)Nc2cccc(OC3CCN(C(=O)NC(C)C)CC3)c2)c1-c1ccc(OC(F)(F)F)cc1` [Example 30, N-(1-methylethyl)-4-[3-[[[6-methyl-4′-(trifluoromethoxy)[1,1′-biphenyl]-2-yl]-carbonyl]amino]phenoxy]-1-piperidine-carboxamide], 369 nM.
The result for `CCOC(=O)CNC(=O)N1CCC(Oc2cccc(NC(=O)c3cccc(C)c3-c3ccc(OC(F)(F)F)cc3)c2)CC1` [Example 31, ethyl N-[[4-[3-[[[6-methyl-4′-(trifluorometh-oxy)[1,1′-biphenyl]-2-yl]carbonyl]amino]-phenoxy]-1-piperidinyl]carbonyl]glycinate] reads 82.7 nM; that for `C=CCNC(=O)N1CCC(Oc2cccc(NC(=O)c3cccc(C)c3-c3ccc(OC(F)(F)F)cc3)c2)CC1` [Example 32, 4-[3-[[[6-methyl-4′-(trifluoromethoxy)[1,1′-biphenyl]-2-yl]carbonyl]amino]phenoxy]-N-2-propenyl-1-piperidinecarboxamide], 161 nM; that for `CCCCNC(=O)N1CCC(Oc2cccc(NC(=O)c3cccc(C)c3-c3ccc(OC(F)(F)F)cc3)c2)CC1` [Example 33, N-butyl-4-[3-[[[6-methyl-4′-(trifluorometh-oxy)[1,1′-biphenyl]-2-yl]carbonyl]amino]-phenoxy]-1-piperidinecarboxamide], 114 nM.
The result for `Cc1cccc(C(=O)Nc2cccc(OC3CCN(C(=O)NC4CCCCC4)CC3)c2)c1-c1ccc(OC(F)(F)F)cc1` [Example 34, N-cyclohexyl-4-[3-[[[6-methyl-4′-(trifluoro-methoxy)[1,1′-biphenyl]-2-yl]carbonyl]-amino]phenoxy]-1-piperidinecarboxamide] reads 296 nM; that for `Cc1cccc(C(=O)Nc2cccc(OC3CCN(C(=O)NCc4ccccc4)CC3)c2)c1-c1ccc(OC(F)(F)F)cc1` [Example 35, 4-[3-[[[6-methyl-4′-(trifluoromethoxy)[1,1′-biphenyl]-2-yl]carbonyl]amino]phenoxy]-N-(phenylmethyl)-1-piperidinecarbox-amide], 120 nM.
Regarding `Cc1cccc(C(=O)Nc2cccc(OC3CCN(C(=O)Nc4cccc(C#N)c4)CC3)c2)c1-c1ccc(OC(F)(F)F)cc1` [Example 37, N-(3-cyanophenyl)-4-[3-[[[6-methyl-4′-(trifluoromethoxy)[1,1′-biphenyl]-2-yl]-carbonyl]amino]phenoxy]-1-piperidine-carboxamide], the IC50 turned out to be 65.2 nM.
